Experimental data reported in ChEMBL document CHEMBL5523723, “G Protein-Coupled Estrogen Receptor-Mediated Anti-Inflammatory and Mucosal Healing Activity of a Trimethylpyridinol Analogue in Inflammatory Bowel Disease” (J Med Chem, 2024).

Legend:
U-937 = assay: Inhibition of TNFalpha induced adhesion of TPA treated human U-937 cells to human HT-29 cells at 1 uM pretreated with HT-29 for 1 hr followed by U-937 addition along with TNFalpha stimulation for 3 hrs by fluorescence based microplate reader assay relative to control; type: functional; conditions: time 4 hrs
[1] = Inhibition of IL6 induced adhesion of TPA treated human U-937 cells to human HT-29 cells at 1 uM pretreated with HT-29 for 1 hr followed by U-937 addition along with IL6 stimulation for 3 hrs by fluorescence based microplate reader assay relative to control; type: functional; conditions: time 4 hrs
Mus musculus [2] = assay: Antiinflammatory activity against DSS-induced chronic colitis in C57BL/6N/Crl mouse model assessed as recovery of body weight at 30 mg/kg, po administered daily 6 days per week for 5 weeks
Mus musculus [3] = assay: Antiinflammatory activity against DSS-induced chronic colitis in C57BL/6N/Crl mouse model assessed as recovery of colon weight at 30 mg/kg, po administered daily 6 days per week for 5 weeks

Compound | inhibition at 1 µM (U-937) | inhibition at 1 µM [1] | Activity (Mus musculus [2]) | Activity (Mus musculus [3])
Cc1nc(NC(=O)c2c(C)noc2C)c(C)c(C)c1O | 85% | 74% | – | –
Cc1nc(NC(=O)c2ccccc2F)c(C)c(C)c1O | 36.4% | 66.4% | – | –
Cc1ccc(C(=O)Nc2nc(C)c(O)c(C)c2C)cc1F | 68.2% | 59.5% | – | –
COc1ccccc1C(=O)Nc1nc(C)c(O)c(C)c1C | 58% | 44% | – | –
Cc1nc(NC(=O)c2ccc(F)cc2F)c(C)c(C)c1O | 71.4% | 62.4% | – | –
Cc1nc(NC(=O)c2sc3cc(Cl)ccc3c2Cl)c(C)c(C)c1O | – | 9% | – | –
Cc1nc(NC(=O)c2ccccc2)c(C)c(C)c1O | – | 44.1% | – | –
Cc1nc(NC(=O)c2sc3ccccc3c2Cl)c(C)c(C)c1O | – | 11.4% | – | –
Cc1ccccc1C(=O)Nc1nc(C)c(O)c(C)c1C | 47.3% | 41.5% | – | –
C[C@@H]1CCN(C(=O)CC#N)C[C@@H]1N(C)c1ncnc2[nH]ccc12 [TOFACITINIB] | – | – | 29.5% | 68.2%
Cc1nc(NC(=O)c2ccc(-c3cc(Cl)ccc3Cl)o2)c(C)c(C)c1O | 78.2% | 69.6% | – | –
Cc1nc(NC(=O)c2ccsc2)c(C)c(C)c1O | 11.5% | 19.3% | – | –
Cc1ccc(C(=O)Nc2nc(C)c(O)c(C)c2C)o1 | 79.9% | 70.2% | – | –
Cc1nc(NC(=O)c2ccc(F)cc2)c(C)c(C)c1O | – | 5.5% | – | –
Cc1nc(NC(=O)c2cccc(F)c2)c(C)c(C)c1O | 54.1% | 44.2% | – | –
COc1ccc(C(=O)Nc2nc(C)c(O)c(C)c2C)c(OC)c1 | 30.9% | 19.1% | – | –
